What was measured:
[1] = DPPH free radical scavenging assay; conditions: mean ± SD, n = 4; ascorbic acid positive control
Protocol: The DPPH free radical scavenging capacity of isolated compounds was determined according to a modified method. […] All isolated compounds and positive drug were dissolved and diluted in DMSO and DPPH (2,2-Diphenyl-1-picrylhydrazyl) was dissolved in anhydrous ethanol. Briefly, 190 μL of a working solution of DPPH (0.2 mM) was added to each well. Then, 10 μL of a sample solution of different concentrations (1.6, 1.2, 0.8, 0.4, 0.2, and 0.1 mM) was added, mixed well, and left to incubate in the dark at room temperature for 60 min. After that, the absorbance values of each well were measured at 517 nm using a microplate reader and the results were obtained from a minimum of three independent experiments. Ascorbic acid was used as the positive control. DMSO was used to replace the sample solution as a blank and absolute ethanol was used to replace the DPPH solution as a control.
The percentage free radical scavenging rate (%) of each test sample for DPPH was calculated as:Free radical scavenging rate (%) = [Ablank − (Asample − Acontral)] ÷ Ablank × 100%

[2] = ABTS radical cation scavenging assay; conditions: mean ± SD, n = 4; ascorbic acid positive control
Protocol: The ABTS free radical scavenging capacity of all isolated compounds was measured, the procedure followed a method with minor modifications. […] Equal volumes of ABTS (2,2′-azinobis(3-ethylbenzthiazoline-6-sulphonic acid)) solution (7 mM) and potassium persulfate solution (2.45 mM) were mixed evenly and left to react at room temperature for 12 h in the dark to obtain ABTS radical cation. The mixture was then diluted with anhydrous methanol to achieve an absorbance value of about 0.7 ± 0.02 units at 405 nm. Then, 190 μL of ABTS working solution was added to each well, followed by 10 μL samples of varying concentrations (0.8, 0.4, 0.2, 0.1, 0.05, 0.025, 0.0125, and 0.00625 mM) that were dissolved and diluted with DMSO. After mixing well, the samples were incubated at room temperature for 6 min away from light. The subsequent experimental method is basically consistent with the DPPH assay, the only difference is that ABTS assay detects the absorbance value at 405 nm.
The percentage radical cation scavenging rate (%) of each test sample for ABTS was calculated as follows:Radical cation scavenging rate (%) = [Ablank − (Asample − Acontral)] ÷ Ablank × 100%
The IC50 values were calculated by using GraphPad Prism 9.0 software.

[3] = FRAP assay (total antioxidant capacity); conditions: for FRAP Assay: Fe2+ concentration equivalent, sample solution 0.68 mM, mean ± SD, n = 4
Protocol: The total antioxidant capacity of the samples was measured by the FRAP (ferric reducing ability of plasma) assay, with slight modifications. The acetate buffer (0.3 M, pH 3.6), TPTZ (2,4,6-tris(2-pyridyl)-S-triazine) solution (10 mM) in 40 mM HCl and ferric chloride aqueous solution (10 mM) were uniformly mixed at a volume ratio of 7:1:1 to obtain the FRAP working solution. FRAP working solution was preheated for 10 min in a constant temperature incubator at 37 °C before use. […] Then, 180 μL of FRAP working solution was added to each well, followed by 6 μL of sample solution (0.68 mM), and finally 18 μL of distilled water. Then, the mixture was stirred well and left to react at room temperature for 10 min. The absorbance values of each well were measured at 593 nm using a microplate reader and the results were obtained from at least three independent experiments. The sample solution was replaced with DMSO as a blank solution and ascorbic acid was used as a positive control. Different concentrations of FeSO4·7H2O (0.075–0.00078 μmol/mL) were used to establish the standard curve. The antioxidant capacity of the sample was expressed as the Fe^2+ concentration (μmol/mL) required to achieve the same absorbance change value. The final result was calculated by GraphPad Prism 9.0 software and presented as mean ± standard deviation (SD) of μmol Fe^2+ per milliliter.

HepG2 cells = test: Hepatoprotective activity, APAP-induced HepG2 cell injury model (CCK-8); assay type: cell-based; conditions: for viability at 20 µM: Homo sapiens, 20 μM compound, APAP 6 mM, 48 h, HepG2, APAP model 68.24 ± 1.34%, n = 3, mean ± SD; for hepatoprotective activity (in words): 20 μM, APAP-induced HepG2 cell injury
Protocol: All these parameters were higher than in the preparation of cell viability positive control of 83.01 ± 0.82%.
HepG2 cells were maintained in DMEM medium supplemented with 10% fetal bovine serum, 100 U/mL penicillin G, and 100 μg/mL streptomycin. The cells were seeded in culture flasks and placed in a 5% CO2 incubator at 37 °C for routine cultivation. The hepatoprotective activities of the isolated samples were tested according to the modified method. To evaluate the effect of test samples on cell viability, a CCK-8 assay was performed. The experiment was conducted in 96-well plates, and 100 μL of HepG2 cells in logarithmic growth phase (8 × 10^5 cells/mL) were seeded in each well and cultured for 24 h. After that, samples (final concentration of 20 μM) and acetaminophen (APAP, final concentration of 6 mM) were added at one time to incubate for another 48 h. Then, 10 μL CCK-8 was added to each well and incubated for 1 h, followed by measuring the absorbance at a wavelength of 450 nm using a microplate reader.

α-glucosidase = α-glucosidase (Saccharomyces cerevisiae, UniProt P53341); test: α-glucosidase inhibitory assay (p-NPG substrate); assay type: biochemical
Sequence of α-glucosidase (P53341 whole entry): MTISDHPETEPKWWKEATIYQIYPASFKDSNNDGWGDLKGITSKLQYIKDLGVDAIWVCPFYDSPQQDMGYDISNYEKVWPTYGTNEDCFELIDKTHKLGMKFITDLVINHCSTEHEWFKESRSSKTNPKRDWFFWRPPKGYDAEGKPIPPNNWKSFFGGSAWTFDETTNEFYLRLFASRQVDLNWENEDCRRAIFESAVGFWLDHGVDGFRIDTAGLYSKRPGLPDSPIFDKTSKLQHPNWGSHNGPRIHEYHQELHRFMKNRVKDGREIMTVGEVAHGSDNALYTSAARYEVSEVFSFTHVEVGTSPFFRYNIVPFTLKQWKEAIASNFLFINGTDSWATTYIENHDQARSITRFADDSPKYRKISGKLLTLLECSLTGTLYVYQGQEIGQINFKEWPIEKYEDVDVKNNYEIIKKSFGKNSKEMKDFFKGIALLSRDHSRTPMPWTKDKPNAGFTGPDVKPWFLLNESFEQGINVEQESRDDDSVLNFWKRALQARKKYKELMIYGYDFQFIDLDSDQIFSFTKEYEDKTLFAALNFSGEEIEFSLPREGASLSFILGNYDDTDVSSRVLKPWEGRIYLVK
Protocol: The α-glucosidase inhibitory activities of isolated compounds were evaluated by using a method previously described, but with minor modifications [34]. […] Briefly, 98 μL of PBS (0.1 M, pH 6.8) was added to each well. Then, 2 μL of different concentrations of sample solutions and 25 μL of α-glucosidase solution (0.25 U/mL) were added. After shaking and mixing slightly, the 96-well plate was placed in a 37 °C constant-temperature incubator and incubated for 20 min. Next, 25 μL of p-NPG (4 mM) was added to the plate to initiate the reaction, and it was further incubated in a 37 °C constant-temperature incubator for 15 min. Then, 50 μL of Na2CO3 (0.2 M) solution was quickly added to each well to terminate the reaction. The absorbance was measured at 405 nm using a microplate reader, and the results were obtained from a minimum of three independent experiments.

Compound: O=C1c2c(O)cc(O)cc2OC(c2ccc(O)c(O)c2)C1O (stereo not shown) [Compound 12, Taxifolin]
- IC50 [1]: 39.21 ± 0.18 µM
- IC50 [2]: 7.36 ± 0.08 µM
- FRAP Assay [3]: 1.32 ± 0.01 µmol/mL
- viability at 20 µM (HepG2 cells): 85.4 ± 1.22%

Compound: O=C1CC(c2cc(O)c(O)c(O)c2)Oc2cc(O)cc(O)c21 (stereo not shown) [Compound 17, 5,7,3′,4′,5′-Pentahydroxy flavanone]
- IC50 [1]: 43.1 ± 0.94 µM
- IC50 [2]: 10.2 ± 0.13 µM
- FRAP Assay [3]: 1.18 ± 0.01 µmol/mL

Compound: C[C@@H]1O[C@@H](Oc2c(-c3ccc(O)c(O)c3)oc3cc(O)cc(O)c3c2=O)[C@H](O)[C@H](O)[C@H]1O [Compound 18, Quercitrin]
- α-glucosidase inhibition (in words) (α-glucosidase): minimally or not
- IC50 [1]: 63.5 ± 0.97 µM
- IC50 [2]: 9.96 ± 0.16 µM
- FRAP Assay [3]: 1.35 ± 0.02 µmol/mL
- hepatoprotective activity (in words) (HepG2 cells): essentially inactive

Compound: O=C1c2c(O)cc(O)cc2O[C@@H](c2cc(O)c(O)c(O)c2)[C@@H]1O [Compound 10, (2S,3S)-Dihydromyricetin]
- IC50 [1]: 43.5 ± 0.36 µM
- IC50 [2]: 5.01 ± 0.11 µM
- FRAP Assay [3]: 1.43 ± 0.01 µmol/mL

Compound: O=C(O)c1c(O)cccc1CCc1ccc(O)cc1 [Compound 8, lunularic acid]
- IC50 [1]: > 80 µM
- IC50 [2]: > 20 µM
- FRAP Assay [3]: 0.13 ± 0.01 µmol/mL

Compound: COC(=O)c1cc(OC)c2c(c1-c1c(CO)cc(OC)c3c1OCO3)OCO2 [bicyclol, reference compound]
- viability at 20 µM (HepG2 cells): 83.01 ± 0.82%

Compound: O=C(O[C@H]1C(=O)c2c(cc(O)c(O)c2O)O[C@@H]1c1cc(O)c(O)c(O)c1)c1cc(O)c(O)c(O)c1 [Compound 1, Meichasu A]
- IC50 [1]: 32.52 ± 0.16 µM
- IC50 [2]: 4.43 ± 0.02 µM
- FRAP Assay [3]: 1.70 ± 0.00 µmol/mL
- viability at 20 µM (HepG2 cells): 84.93 ± 0.58%

Compound: C[C@@H]1O[C@@H](Oc2c(-c3ccc(O)c(O)c3)oc3c(O)c(O)c(O)c(O)c3c2=O)[C@H](O)[C@H](O)[C@H]1O [Compound 2, Meichasu B]
- IC50 [1]: 44.4 ± 0.63 µM
- IC50 [2]: 6.73 ± 0.03 µM
- FRAP Assay [3]: 1.96 ± 0.01 µmol/mL
- viability at 20 µM (HepG2 cells): 88.46 ± 0.63%

Compound: O=C(CCc1ccc(O)cc1)c1c(O)cc(O)cc1O[C@@H]1O[C@H](CO)[C@@H](O)[C@H](O)[C@H]1O [Compound 15, Phloridzin]
- α-glucosidase inhibition (in words) (α-glucosidase): minimally or not
- IC50 [1]: > 80 µM
- IC50 [2]: > 20 µM
- FRAP Assay [3]: 0.17 ± 0.01 µmol/mL

Compound: O=C1c2c(O)cc(O)cc2O[C@H](c2cc(O)c(O)c(O)c2)[C@H]1O [Compound 3, (2R,3R)-Dihydromyricetin]
- IC50 [1]: 28.3 ± 0.38 µM
- IC50 [2]: 5.91 ± 0.11 µM
- FRAP Assay [3]: 1.71 ± 0.01 µmol/mL
- hepatoprotective activity (in words) (HepG2 cells): moderate hepatoprotective activities

Compound: O=c1c(O)coc2cc(O)cc(O)c12 [Compound 11, 3,5,7-Trihydroxychromone]
- IC50 [1]: > 80 µM
- IC50 [2]: > 20 µM
- FRAP Assay [3]: 0.15 ± 0.00 µmol/mL

Compound: O=C(O[C@H]1C(=O)c2c(O)cc(O)cc2O[C@@H]1c1cc(O)c(O)c(O)c1)c1cc(O)c(O)c(O)c1 [Compound 19, (2R,3R)-3,4-Dihydro-5,7-dihydroxy-4-oxo-2-(3,4,5-trihydroxyphenyl)-2H-1-benzopyran-3-yl 3,4,5-trihydroxybenzoate]
- IC50 [1]: 17.3 ± 0.31 µM
- IC50 [2]: 2.19 ± 0.01 µM
- FRAP value [3]: 2.79 µmol/mL
- FRAP Assay [3]: 2.79 ± 0.01 µmol/mL

Compound: CC(C)CC(=O)c1c(O)cc(O)cc1O[C@@H]1O[C@H](CO)[C@@H](O)[C@H](O)[C@H]1O [Compound 16, 2-O-[1-(3-Methylbutyryl)phloroglucin-ol]-β-D-glucopyranoside]
- IC50 [1]: > 80 µM
- IC50 [2]: > 20 µM
- FRAP Assay [3]: 0.24 ± 0.01 µmol/mL

Compound: O=c1c(O)c(-c2cc(O)c(O)c(O)c2)oc2cc(O)cc(O)c12 [Compound 5, Myricetin]
- IC50 [1]: 29.8 ± 0.59 µM
- IC50 [2]: 3.39 ± 0.07 µM
- FRAP Assay [3]: 1.72 ± 0.01 µmol/mL
- hepatoprotective activity (in words) (HepG2 cells): moderate hepatoprotective activities

Compound: O=c1c(O)c(-c2ccc(O)c(O)c2)oc2cc(O)cc(O)c12 [Compound 4, Quercetin]
- IC50 [1]: 25.5 ± 0.63 µM
- IC50 [2]: 2.76 ± 0.04 µM
- FRAP Assay [3]: 2.67 ± 0.01 µmol/mL
- viability at 20 µM (HepG2 cells): 84.9 ± 1.21%

Compound: Myricitrin [Compound 13]
- α-glucosidase inhibition (in words) (α-glucosidase): minimally or not
- IC50 [1]: 35.03 ± 0.28 µM
- IC50 [2]: 6.88 ± 0.13 µM
- FRAP Assay [3]: 1.69 ± 0.02 µmol/mL

Compound: O=C1O[C@H]([C@@H](O)CO)C(O)=C1O [ascorbic acid, reference compound]
- IC50 [1]: 77.9 ± 0.87 µM
- IC50 [2]: 19 ± 0.31 µM
- FRAP Assay [3]: 0.57 ± 0.01 µmol/mL

Compound: O=C1C[C@@H](c2ccc(O)cc2)Oc2cc(O)cc(O)c21 [Compound 6, Naringenin]
- IC50 [1]: > 80 µM
- IC50 [2]: > 20 µM
- FRAP Assay [3]: 0.07 ± 0.00 µmol/mL
- viability at 20 µM (HepG2 cells): 83.7 ± 0.67%

Compound: C[C@@H]1O[C@@H](Oc2c(-c3ccc(O)cc3)oc3cc(O)cc(O)c3c2=O)[C@H](O)[C@H](O)[C@H]1O [Compound 14, Afzelin]
- IC50 [1]: > 80 µM
- IC50 [2]: > 20 µM
- FRAP Assay [3]: 0.07 ± 0.00 µmol/mL
- hepatoprotective activity (in words) (HepG2 cells): essentially inactive

Compound: O=c1c(O)c(-c2ccc(O)cc2)oc2cc(O)cc(O)c12 [Compound 7, Kaempferol]
- IC50 [1]: > 80 µM
- IC50 [2]: 19.9 ± 0.46 µM
- FRAP Assay [3]: 0.85 ± 0.01 µmol/mL
- viability at 20 µM (HepG2 cells): 87.08 ± 0.6%

Compound: lunularin [Compound 9]
- IC50 (α-glucosidase; mean ± SD, n = 4, acarbose positive control): 9.42 ± 0.51 µM
- IC50 [1]: > 80 µM
- IC50 [2]: > 20 µM
- FRAP Assay [3]: 0.09 ± 0.00 µmol/mL

From PMC10745659, “Chemical Constituents and α-Glucosidase Inhibitory, Antioxidant and Hepatoprotective Activities of Ampelopsis grossedentata” (Molecules, 2023)
